Biological target: T1, Hog1 (Saccharomyces cerevisiae, UniProt P32485)
T1 sequence (P32485 2-435): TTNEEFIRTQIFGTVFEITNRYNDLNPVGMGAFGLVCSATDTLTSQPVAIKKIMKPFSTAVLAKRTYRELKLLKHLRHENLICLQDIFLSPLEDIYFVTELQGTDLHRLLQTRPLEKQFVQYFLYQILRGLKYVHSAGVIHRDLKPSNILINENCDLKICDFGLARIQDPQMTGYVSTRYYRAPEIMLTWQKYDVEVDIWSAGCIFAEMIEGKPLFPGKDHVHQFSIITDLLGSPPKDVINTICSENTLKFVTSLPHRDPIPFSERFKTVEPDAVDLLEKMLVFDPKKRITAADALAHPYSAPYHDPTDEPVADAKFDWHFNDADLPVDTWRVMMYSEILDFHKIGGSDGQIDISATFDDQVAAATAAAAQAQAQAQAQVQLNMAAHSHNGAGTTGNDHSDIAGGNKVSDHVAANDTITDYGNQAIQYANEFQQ
Assay: in vitro radiometric kinase assay with biotinylated Sic1 peptide
Format: biochemical

Point of comparison: `CC(C)Nc1cc(-c2c(-c3ccc(F)cc3)nnn2Cc2ccccc2)ccn1` [4b, 4-(1-benzyl-4-(4-fluorophenyl)-1H-1,2,3-triazol-5-yl)-N-iso-propyl-pyridin-2-amine], IC50 6.2 ± 2.2 nM. Against it:
- CC(C)Nc1cc(-c2c(-c3ccccc3)nnn2Cc2ccccc2)ccn1 [4a, 4-(1-benzyl-4-phenyl-1H-1,2,3-triazol-5-yl)-N-isopropylpyridin-2-amine] — within error, 7.4 ± 0.41 nM

Biological target: T1, Hog1
Assay: in vitro radiometric kinase assay, single dose […]
Format: biochemical

`Fc1ccc(-c2nnn(CC3CC3)c2-c2ccncc2)cc1` [1a] and `Fc1ccc(-c2nnn(Cc3ccccc3)c2-c2ccncc2)cc1` [1c] fall in the same range of remaining activity at 0.1 µM: 50 to 70% for the first, 50 to 70% for the second.

`c1ccc(Cn2nnc(-c3ccccc3)c2-c2ccncc2)cc1` [1b] and `Clc1ccc(-c2nnn(Cc3ccccc3)c2-c2ccncc2)cc1` [1d] fall in the same range of remaining activity at 0.1 µM: 50 to 70% for the first, 50 to 70% for the second.

First: Brc1ccc(-c2nnn(Cc3ccccc3)c2-c2ccncc2)cc1 [1e]
Second: C[C@H](Nc1cc(-c2c(-c3ccc(F)cc3)nnn2Cc2ccccc2)ccn1)c1ccccc1 [4e, (S)-4-(1-benzyl-4-(4-fluorophenyl)-1H-1,2,3-triazol-5-yl)-N-(1-phenylethyl)pyridin-2-amine]
The remaining activity at 0.1 µM of the first is higher: 50 to 70% for the first, 35 to 40% for the second.

Work on `CC1CCC(Nc2cc(-c3c(-c4ccc(F)cc4)nnn3Cc3ccccc3)ccn2)CC1` (stereo not drawn) [4d, 4-(1-benzyl-4-(4-fluorophenyl)-1H-1,2,3-triazol-5-yl)-N-(4-methyl-cyclohexyl)pyridin-2-amine] yielded a remaining activity at 0.1 µM of 35 to 40%.

Reference: PMC3104989 (PLoS ONE, 2011)
